Laboratory results as given in patent publication US5945413A, “Aspartyl protease inhibitors” (Vertex Pharmaceuticals Incorporated, priority 1996, dated 1999).
pKi: −log10 of the molar value.

What follows are molecules tested against HIV-1 protease (Human immunodeficiency virus type 1 group M subtype B, UniProt P04585) (assay: inhibition constants against HIV-1 protease (method of Pennington et al.)). Conditions: not given.
Type: biochemical
Text: We have measured the inhibition constants of each compound against HIV-1 protease using the method described essentially by M. W. Pennington et al., Peptides 1990, Gimet, E. and D. Andrew, Eds., Escom, Leiden, Netherlands (1990); and the method described essentially by Partaledis et al., J. Virol., 69, pp. 5228-35 (1995).
Using the method described by Pennington et al. (supra), we obtained inhibition constants for the following compounds of this invention: […]

SMILES	pKi
COc1ccc(S(=O)(=O)N(CC(O)CN2C(=O)CC(O)[C@@H]2Cc2ccccc2)CC2CCCC2)cc1 (stereo partly shown) [Compound 19]	5.52
COc1ccc(S(=O)(=O)N(CC2CCCC2)C[C@@H](O)CN2C(=O)C3(CCCCC3)OC[C@@H]2Cc2ccccc2)cc1 [Compound 47]	7.70
COc1ccc(S(=O)(=O)N(CC(O)CN2C(=O)C(CC(O)CO)C[C@@H]2Cc2ccccc2)CC2CCCC2)cc1 (stereo partly shown) [Compound 23]	7.15
COc1ccc(S(=O)(=O)N(CC(O)CN2C(=O)C(C)(C)C[C@@H]2Cc2ccccc2)CC2CCCC2)cc1 (stereo partly shown) [Compound 17]	6.94
COc1ccc(S(=O)(=O)N(CC(O)CN2C(=O)COC[C@@H]2Cc2ccccc2)CC2CCCC2)cc1 (stereo partly shown) [Compound 28]	5.85
COc1ccc(S(=O)(=O)N(CC(O)CN2C(=O)C(CC3COCO3)C[C@@H]2Cc2ccccc2)CC2CCCC2)cc1 (stereo partly shown) [Compound 24]	6.46
COc1ccc(S(=O)(=O)N(CC(O)CN2C(=O)[C@H](C)NC[C@@H]2Cc2ccccc2)CC2CCCC2)cc1 (stereo partly shown) [Compound 30]	< 4.82
COc1ccc(S(=O)(=O)N(CC(O)CN2[C@@H](Cc3ccccc3)CN(C)S2(=O)=O)CC2CCCC2)cc1 (stereo partly shown) [Compound 10]	< 5.00
COc1ccc(S(=O)(=O)N(CC(O)CN2C(=O)N(Cc3ccccc3)C[C@@H]2Cc2ccccc2)CC2CCCC2)cc1 (stereo partly shown) [Compound 14]	7.80
COc1ccc(S(=O)(=O)N(CC(O)CN2C(=O)C(C)(C)NC[C@@H]2Cc2ccccc2)CC2CCCC2)cc1 (stereo partly shown) [Compound 31]	6.41
CCC1C[C@H](Cc2ccccc2)N(CC(O)CN(CC2CCCC2)S(=O)(=O)c2ccc(OC)cc2)C1=O (stereo partly shown) [Compound 18]	7.82

Continued, values first:

pKi	SMILES
8.05	C=CCC1C[C@H](Cc2ccccc2)N(C[C@H](O)CN(CC2CCCC2)S(=O)(=O)c2ccc(OC)cc2)C1=O (stereo partly shown) [Compound 7]
6.80	COc1ccc(S(=O)(=O)N(CC(O)CN2C(=O)C3(CCCC3)NC[C@@H]2Cc2ccccc2)CC2CCCC2)cc1 (stereo partly shown) [Compound 32]
6.22	COc1ccc(S(=O)(=O)N(CC(O)CN2C(=O)C(NC(C)=O)C[C@@H]2Cc2ccccc2)CC2CCCC2)cc1 (stereo partly shown) [Compound 22]
6.65	COc1ccc(S(=O)(=O)N(CC(O)CN2C(=O)N(C)C[C@@H]2Cc2ccccc2)CC2CCCC2)cc1 (stereo partly shown) [Compound 13]
5.52	COc1ccc(S(=O)(=O)N(CC(O)CN2C(=O)CNC[C@@H]2Cc2ccccc2)CC2CCCC2)cc1 (stereo partly shown) [Compound 27]
5.96	COC(=O)C1NC[C@H](Cc2ccccc2)N(CC(O)CN(CC2CCCC2)S(=O)(=O)c2ccc(OC)cc2)C1=O (stereo partly shown) [Compound 33]
6.02	COC(=O)C1(C)NC[C@H](Cc2ccccc2)N(CC(O)CN(CC2CCCC2)S(=O)(=O)c2ccc(OC)cc2)C1=O (stereo partly shown) [Compound 34]
< 4.70	COc1ccc(S(=O)(=O)N(CC(O)CN2C(=O)C(N)C[C@@H]2Cc2ccccc2)CC2CCCC2)cc1 (stereo partly shown) [Compound 21]
7.08	COc1ccc(S(=O)(=O)N(CC(O)CN2C(=O)C(CC(COC(C)=O)OC(C)=O)C[C@@H]2Cc2ccccc2)CC2CCCC2)cc1 (stereo partly shown) [Compound 25]
< 5.00	CC(C)CN1CC(Cc2ccccc2)N(CC(O)CN(CC2CCCC2)S(=O)(=O)c2cccc(N)c2)C1=O (stereo not shown) [Compound 12]
6.80	C=CCN1C[C@H](Cc2ccccc2)N(C[C@H](O)CN(CC2CCCC2)S(=O)(=O)c2ccc(OC)cc2)C1=O [Compound 1]
7.25	COc1ccc(S(=O)(=O)N(CC2CCCC2)C[C@@H](O)CN2C(=O)C(C)C[C@@H]2Cc2ccccc2)cc1 (stereo partly shown) [Compound 16]
6.26	COc1ccc(S(=O)(=O)N(CC(O)CN2C(=O)CC[C@@H]2Cc2ccccc2)CC2CCCC2)cc1 (single isomer, unassigned) [Compound 15]
< 5.00	COc1ccc(S(=O)(=O)N(CC(O)CN2[C@@H](Cc3ccccc3)CCS2(=O)=O)CC2CCCC2)cc1 (stereo partly shown) [Compound 11]
7.24	COc1ccc(S(=O)(=O)N(CC(O)CN2C(=O)C(CC3COC(=O)O3)C[C@@H]2Cc2ccccc2)CC2CCCC2)cc1 (stereo partly shown) [Compound 26]
8.82	COc1ccc(S(=O)(=O)N(CC2CCCC2)C[C@@H](O)CN2C(=O)C(Cc3ccccc3)C[C@@H]2Cc2ccccc2)cc1 (stereo partly shown) [Compound 20]

Same assay, conditions: Inhibition constant measured at pH 6.0

SMILES	pKi
C=CCC1C[C@H](Cc2ccccc2)N(CC(O)CN2CCN(Cc3cccnc3)CC2C(=O)NC(C)(C)C)C1=O (stereo partly shown) [Compound 9]	7.05
CC(C)(C)NC(=O)C1CSCN1C(=O)C(=O)CN1C(=O)C(C)(C)NC[C@@H]1Cc1ccccc1 (stereo partly shown) [Compound 105]	< 5.00
C=CCN1C[C@H](Cc2ccccc2)N(CC(O)CN2C[C@H]3CCCC[C@H]3CC2C(=O)NC(C)(C)C)C1=O (stereo partly shown) [Compound 2]	6.74
C=CCN1CC(Cc2ccccc2)N(CC(O)CC(Cc2ccccc2)C(=O)NC2c3ccccc3CC2O)C1=O (stereo not shown) [Compound 78]	8.00
C=CCN1C[C@H](Cc2ccccc2)N(CC(O)CN2CCN(Cc3cccnc3)CC2C(=O)NC(C)(C)C)C1=O (stereo partly shown) [Compound 3]	5.74

The remaining lines, values ahead:

pKi	SMILES
6.60	CC(C)(C)NC(=O)C1CSCN1C(=O)C(=O)CN1C(=O)C(Cc2ccccc2)CC1Cc1ccccc1 (stereo not shown) [Compound 109]
5.92	CC(C)(C)NC(=O)C1CSCN1C(=O)C(O)CN1C(=O)C(Cc2ccccc2)CC1Cc1ccccc1 (stereo not shown) [Compound 102]
< 5.00	CC(C)(C)NC(=O)C1C[C@@H]2CCCC[C@@H]2CN1CC(O)CN1C(=O)C(C)(C)NC[C@@H]1Cc1ccccc1 (stereo partly shown) [Compound 5]
8.30	C=CCC1C[C@H](Cc2ccccc2)N(CC(O)CN2C[C@H]3CCCC[C@H]3CC2C(=O)NC(C)(C)C)C1=O (stereo partly shown) [Compound 8]
6.60	CC(C)(C)NC(=O)C1C[C@@H]2CCCC[C@@H]2CN1CC(O)CN1C(=O)N(Cc2ccccc2)C[C@@H]1Cc1ccccc1 (stereo partly shown) [Compound 76]
6.25	CC(C)(C)NC(=O)C1C[C@@H]2CCCC[C@@H]2CN1CC(O)CN1[C@@H](Cc2ccccc2)CN(Cc2ccccc2)S1(=O)=O (stereo partly shown) [Compound 77]
5.07	CCCC1CC(Cc2ccccc2)N(CC(=O)C(=O)N2CSCC2C(=O)NC(C)(C)C)C1=O (stereo not shown) [Compound 112]
< 5.00	CC(C)(C)NC(=O)C1CSCN1C(=O)C(=O)CN1C(=O)CCC1Cc1ccccc1 (stereo not shown) [Compound 111]
